Data as given in ChEMBL document CHEMBL1201862, “PubChem BioAssay data set” (2004).
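Method: 48-hour compound exposure of cells in 96-well plates, five concentrations, linear interpolation of endpoints. GI50: concentration for 50% inhibition of growth.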 Calls of active or inactive are those of the source. No stated cut-off is given here; in the data, active = GI50 up to about 1.1 µM and inactive = higher.

Experiments:
Assay in all cases: inhibition of tumour cell growth, NCI panel, 48 h
MDA-N = test system: MDA-N
MDA-MB-435 = test system: MDA-MB-435
SNB-19 = test system: SNB-19
SR = test system: SR
KM12 = test system: KM12
EKVX = test system: EKVX
CAKI-1 = test system: CAKI-1
NCI-H522 = test system: NCI-H522
CCRF-CEM = test system: CCRF-CEM
SNB-75 = test system: SNB-75
RXF 393 = test system: RXF 393
UO-31 = test system: UO-31
SK-OV-3 = test system: SK-OV-3
HL-60 = test system: HL-60
TK-10 = test system: TK-10
DU-145 = test system: DU-145
U-251 = test system: U-251
NCI/ADR-RES = test system: NCI/ADR-RES
MOLT-4 = test system: MOLT-4
A498 = test system: A498

SMILES	GI50 (MDA-N)	GI50 (MDA-MB-435)	GI50 (SNB-19)	GI50 (SR)	GI50 (KM12)	GI50 (EKVX)	GI50 (CAKI-1)	GI50 (NCI-H522)	GI50 (CCRF-CEM)	GI50 (SNB-75)	GI50 (RXF 393)	GI50 (UO-31)	GI50 (SK-OV-3)	GI50 (HL-60)	GI50 (TK-10)	GI50 (DU-145)	GI50 (U-251)	GI50 (NCI/ADR-RES)	GI50 (MOLT-4)	GI50 (A498)
CCCCCCCCCCOCCOCCOCCOCCCCC(O)CCCCCCCC1=C[C@H](C)OC1=O (stereo not given in full)	11.6 µM (inactive)	12 µM (inactive)	13.8 µM (inactive)	0.671 µM (active)	10.6 µM (inactive)	10.7 µM (inactive)	14.1 µM (inactive)	6.34 µM (inactive)	2.79 µM (inactive)	11.8 µM (inactive)	10.9 µM (inactive)	7.78 µM (inactive)	16.5 µM (inactive)	0.863 µM (active)	10.2 µM (inactive)	14.7 µM (inactive)	11.1 µM (inactive)	7.41 µM (inactive)	2.83 µM (inactive)	13.6 µM (inactive)
COC(=O)CCC(=O)NC1=C(NCc2ccccc2)C(=O)c2ccccc2C1=O	16 µM (inactive)	18.9 µM (inactive)	21.7 µM (inactive)	27.9 µM (inactive)	24.8 µM (inactive)	32.9 µM (inactive)	26.2 µM (inactive)	19.1 µM (inactive)	35.8 µM (inactive)	78.2 µM (inactive)	34.7 µM (inactive)	32.6 µM (inactive)	57.3 µM (inactive)	21.8 µM (inactive)	45.3 µM (inactive)	45.3 µM (inactive)	28.9 µM (inactive)	29.3 µM (inactive)	34 µM (inactive)	67.9 µM (inactive)
CC[C@@]1(O)C(=O)OCc2c1cc1n(c2=O)Cc2c-1nc1ccccc1c2/C=N/NC(=O)C[N+](C)(C)C	9.62 µM (inactive)	16.1 µM (inactive)	0.75 µM (active)	0.0391 µM (active)	> 53.8 µM (inactive)	47.9 µM (inactive)	0.578 µM (active)	2.26 µM (inactive)	0.123 µM (active)	0.525 µM (active)	0.697 µM (active)	0.944 µM (active)	2.1 µM (inactive)	0.668 µM (active)	> 80.2 µM (inactive)	0.458 µM (active)	1.11 µM (active)	1.65 µM (inactive)	0.207 µM (active)	7.76 µM (inactive)
